This passage reports IC50 results from patent US8158621B2, “Methods of treating or preventing autoimmune diseases with 2,4-pyrimidinediamine compounds” (Rigel Pharmaceuticals, Inc., priority 2002, dated 2012).

Some results are limits rather than exact numbers.

The first test relates to Human Jurkat T-cells (clone N). Description: Jurkat T-cell activation (anti-TCR, CD69 upregulation). The format is cell-based.
Conditions: not given
A digest of the protocol:
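Readout is CD69 upregulation by flow cytometry (anti-CD69-APC, 20 min at 4 °C) after 20 h anti-TCR (C305, 500 ng/ml) stimulation at 37 °C.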
The compound `CC(C)Oc1ccc(Nc2nc(Nc3ccc4[nH]ncc4c3)ncc2F)cc1` [Compound R935197] yielded an IC50 of 2.43 µM.
Same read-out and setting: under `ON=C1CCOc2ccc(Nc3ncc(F)c(Nc4ccc5c(c4)C(=NO)CCO5)n3)cc21` [Compound R950381] stands 0.805 µM.
`Cc1cc(Nc2nc(Nc3cccc(OCCN4CCOCC4)c3)ncc2F)cc(C)c1O` [Compound R940256] displayed a 50% inhibitory concentration (IC50) of 4.75 µM.
The same measure, in the same setting: under `NC(=O)COc1ccc(Nc2ncc(F)c(Nc3cccc(O)c3)n2)cc1` [Compound R945064] stands 4.68 µM; under `CCOC(=O)COc1cccc(Nc2ncc(F)c(Nc3ccc4c(c3)NCCO4)n2)c1` [Compound R909242], 3.8 µM; under `O=C(COc1cccc(Nc2ncc(F)c(Nc3ccc4c(c3)OCCO4)n2)c1)NC1CC1` [Compound R926848], 1.72 µM.
Same read-out and setting: under `O=C(CNc1cccc(Nc2ncc(F)c(Nc3ccc4c(c3)OCCO4)n2)c1)N1CCNCC1` [Compound R950197] stands 2.58 µM.
For the compound `CC(O)CNC(=O)COc1cccc(Nc2ncc(F)c(Nc3ccc4c(c3)NCCO4)n2)c1` (centres unmarked) [Compound R909251], the IC50 turned out to be 0.664 µM.
Still for that read-out and setting: under `CNC(=O)COc1cccc(Nc2ncc(F)c(Nc3ccc4c(c3)OCCO4)n2)c1` [Compound R926816] stands 0.739 µM; under `CNC(=O)COc1cccc(Nc2ncc(F)c(Nc3ccc4[nH]ccc4c3)n2)c1` [Compound R926931], 2.93 µM; under `O=C(CNc1cccc(Nc2ncc(F)c(Nc3cccc(O)c3)n2)c1)N1CCOCC1` [Compound R950221], 20.3 µM.
The same measure, in the same setting: in the case of `CCOC(=O)COc1cccc(Nc2ncc(F)c(Nc3ccc4c(c3)OCCN4)n2)c1` [Compound R909266] it was 13 µM; in that of `Oc1cccc(Nc2nc(Nc3ccc(OCc4nnn[nH]4)cc3)ncc2C(F)(F)F)c1` [Compound R920846], 10.4 µM; in that of `NC(=O)CNc1cccc(Nc2ncc(F)c(Nc3ccc4c(c3)OCCO4)n2)c1` [Compound R950192], 1.73 µM.
The same measure, in the same setting: under `CNC(=O)COc1cccc(Nc2ncc(F)c(Nc3cccc(C(=O)c4ccccc4)c3)n2)c1` [Compound R950372] stands 2.19 µM; under `CCOC(=O)COc1ccc(Nc2nc(Nc3ccc(OCC(=O)OCC)cc3)c([N+](=O)[O-])c(C(=O)OCC)n2)cc1` [Compound R926566], over 10 µM.
The compound `CNC(=O)CCn1ncc2ccc(Nc3ncc(F)c(Nc4ccc5oc(C(=O)NC)cc5c4)n3)cc21` [Compound R935297] displayed a concentration for half-maximal inhibition (IC50) of 5.7 µM.
The same measure, in the same setting: under `Fc1cnc(Nc2ccc(OCc3nc(-c4ccccc4)no3)cc2)nc1Nc1ccc2c(c1)OCCO2` [Compound R935136] stands over 10 µM; under `COC(=O)c1cc(COc2cccc(Nc3ncc(F)c(Nc4ccc5c(c4)OCCO5)n3)c2)co1` [Compound R935207], over 10 µM.
Still for that read-out and setting: under `CNC(=O)COc1cccc(Nc2ncc(F)c(Nc3ccc(OC(F)(F)F)cc3)n2)c1` [Compound R926879] stands 2.55 µM; under `CNC(=O)CNc1cccc(Nc2ncc(F)c(Nc3ccc4c(c3)OCCO4)n2)c1` [Compound R950191], 2.59 µM; under `Oc1cccc(Nc2nc(Nc3ccc4[nH]ncc4c3)ncc2F)c1` [Compound R935199], 2.51 µM.
Same read-out and setting: in the case of `CNCCNC(=O)CNc1cccc(Nc2ncc(F)c(Nc3cccc(NCCO)c3)n2)c1` [Compound R950234] it was over 10 µM.
`CC(C)Oc1ccc(Nc2nc(Nc3ccc4cnn(CCCO)c4c3)ncc2F)cc1` [Compound R935290] returned a half-inhibitory concentration (IC50) of 3.43 µM.
For `O=C(COc1ccc(Nc2ncc(F)c(Nc3ccc4c(c3)OCCO4)n2)cc1)NCCO` [Compound R909239], the midpoint of inhibition, the IC50, lay at 3.06 µM.
Still for that read-out and setting: in the case of `Cc1cnc(Nc2ccc(OCc3nnn[nH]3)cc2)nc1Nc1cccc(O)c1` [Compound R920820] it was over 10 µM; in that of `O=C(c1cccc(Nc2ncc(F)c(Nc3cccc(O)c3)n2)c1)N1CCOCC1` [Compound R926938], over 10 µM; in that of `Cn1ncc2cc(Nc3ncc(F)c(Nc4ccc5c(c4)NC(=O)C(C)(C)O5)n3)ccc21` [Compound R940338], 0.708 µM.
Same read-out and setting: in the case of `CCOC(=O)CNc1cccc(Nc2ncc(F)c(Nc3cccc(O)c3)n2)c1` [Compound R950215] it was 5.01 µM.
With `CCOC(=O)COc1ccc(Nc2ncc(C#N)c(Nc3ccc(OCC(=O)OCC)cc3)n2)cc1` [Compound R925775], the IC50 was over 10 µM.
Still for that read-out and setting: in the case of `Cc1nc(COc2cccc(Nc3ncc(F)c(Nc4cccc(O)c4)n3)c2)no1` [Compound R945127] it was 11.1 µM; in that of `COC(=O)Cn1ncc2ccc(Nc3nc(Nc4ccc5c(c4)OCCO5)ncc3F)cc21` [Compound R935219], 5.57 µM; in that of `CNC(=O)COc1cccc(Nc2ncc(F)c(Nc3cccc([N+](=O)[O-])c3)n2)c1` [Compound R950261], 17.4 µM.
As for `Nc1cccc(Nc2nc(Nc3cccc(NCCOCc4ccccc4)c3)ncc2F)c1` [Compound R950176], the IC50 was over 10 µM.
Consider `CNC(=O)COc1cccc(Nc2nc(Nc3cccc(C(C)(C)C)c3)ncc2F)c1` [Compound R940267], for which the concentration for half-maximal inhibition (IC50) was over 10 µM.
In turn, `COC(=O)Cn1ncc2cc(Nc3ncc(F)c(Nc4ccc(OC(C)C)cc4)n3)ccc21` [Compound R935222] had a 50% inhibitory concentration (IC50) of 3.54 µM.
The same measure, in the same setting: under `O=C(CNc1cccc(Nc2ncc(F)c(Nc3cccc(NCCO)c3)n2)c1)NCCO` [Compound R950231] stands 8.69 µM; under `CNC(=O)COc1cccc(Nc2ncc(F)c(Nc3ccc(Cl)c(C(F)(F)F)c3)n2)c1` [Compound R926881], 11 µM.
The same measure, in the same setting: in the case of `CNC(=O)COc1cc(Nc2ncc(F)c(Nc3ccc4cc[nH]c4c3)n2)ccc1OC` [Compound R926752] it was 1.73 µM.
Same read-out and setting: in the case of `CCOC(=O)C(C)(C)c1ccc(Nc2nc(Nc3cccc(O)c3)ncc2F)cc1` [Compound R935169] it was 7.54 µM.

Staying with this test, now noted: Homo sapiens, Jurkat.
`Cc1ccc(N)cc1Nc1ncc(F)c(Nc2cc(N)ccc2C)n1` [Compound R950157] returned an IC50 of over 10 µM.
Same read-out and setting: under `Oc1cccc(Nc2nc(NCc3cccnc3)ncc2F)c1` [Compound R945165] stands over 10 µM; under `COC(=O)c1cc(Nc2ncc(F)c(Nc3ccc(O)c(C(=O)OC)c3)n2)ccc1O` [Compound R945043], over 10 µM.
Still for that read-out and setting: under `COC(=O)c1cc(N)cc(Nc2ncc(F)c(Nc3cc(N)cc(C(=O)OC)c3)n2)c1` [Compound R950134] stands 6.46 µM; under `Fc1cnc(Nc2ccc3c(c2)OCCO3)nc1NCc1csc2ccc(Cl)cc12` [Compound R926721], 3.46 µM.
On the same count and under the same terms, under `O=[N+]([O-])c1cnc(Nc2ccc3c(c2)OC(F)(F)O3)nc1Nc1ccc2c(c1)OC(F)(F)O2` [Compound R940100] stands over 10 µM.
With `CCOc1cccc(Nc2ncc(F)c(Nc3cccc(OCC)c3)n2)c1` [Compound R926064], the half-maximal inhibitory concentration (IC50) is over 10 µM.
On the same count and under the same terms, under `CCNC(=O)Nc1ccc(Nc2ncc(F)c(Nc3ccc(NC(=O)NCC)cc3)n2)cc1` [Compound R945040] stands over 10 µM; under `COC(=O)c1cc2cc(Nc3ncc(F)c(Nc4cccc(C(C)(C)C)c4)n3)ccc2o1` [Compound R940281], over 10 µM; under `O=C(O)C1CCC(Nc2nc(Nc3ccc4c(c3)OCCO4)ncc2F)CC1` (centres unmarked) [Compound R925795], over 10 µM.
Take `CC(=O)c1cccc(Nc2ncc(F)c(Nc3cccc(C(C)=O)c3)n2)c1` [Compound R950376]: inhibition was half-maximal at 18.1 µM (IC50).
Same read-out and setting: under `c1coc(-c2cnc(Nc3ccc4c(c3)OCCO4)nc2Nc2ccc3c(c2)OCCO3)c1` [Compound R925785] stands 3.12 µM; under `COC(=O)c1cc(N)cc(Nc2ccnc(Nc3cc(N)cc(C(=O)OC)c3)n2)c1` [Compound R950132], 4.64 µM; under `CCOC(=O)c1cccc(Nc2ncc(F)c(Nc3cccc(C(=O)OCC)c3)n2)c1` [Compound R926228], over 10 µM.
Consider `COc1ccc(-c2ccccc2)cc1Nc1ncc(C)c(Nc2cc(-c3ccccc3)ccc2OC)n1` [Compound R935000], for which the IC50 is over 10 µM.
The same measure, in the same setting: in the case of `CCOC(=O)C(C)(C)c1ccc(Nc2nc(Nc3ccc4c(c3)OCCO4)ncc2F)cc1` [Compound R935172] it was over 10 µM; in that of `Fc1cnc(Nc2cccc(OCc3ccccc3)c2)nc1Nc1cccc(OCc2ccccc2)c1` [Compound R926394], over 10 µM; in that of `N#Cc1cnc(Nc2ccc3c(c2)OCCO3)nc1Nc1ccc2c(c1)OCCO2` [Compound R925773], 14.4 µM.
Same read-out and setting: in the case of `Oc1cccc(Nc2ncc(-c3ccc4c(c3)OCO4)c(Nc3cccc(O)c3)n2)c1` [Compound R925788] it was 16.9 µM.
Same read-out and setting: in the case of `N#Cc1cc(Nc2ncc(F)c(Nc3ccc(O)c(C#N)c3)n2)ccc1O` [Compound R950092] it was over 10 µM; in that of `CCOC(=O)c1nc(Nc2cccc(O)c2)nc(Nc2cccc(O)c2)c1[N+](=O)[O-]` [Compound R925849], 8.02 µM; in that of `Nc1cc(Nc2ccnc(Nc3cc(N)cc(C(F)(F)F)c3)n2)cc(C(F)(F)F)c1` [Compound R950143], 4.57 µM.
With `CNC(=O)c1cccc(Nc2ncc(F)c(Nc3ccc4cc[nH]c4c3)n2)c1` [Compound R926933], the IC50 stood at 2.79 µM.
`Cc1c(O)cccc1Nc1ncc(F)c(Nc2cccc(O)c2C)n1` [Compound R945038]: the IC50 is over 10 µM.
The same measure, in the same setting: under `Oc1cccc(Nc2nc(NCc3ccc4c(c3)OCCO4)ncc2F)c1` [Compound R945168] stands over 10 µM; under `O=C(O)c1cc2cc(Nc3ncc(F)c(Nc4cccc(O)c4)n3)ccc2[nH]1` [Compound R926479], over 10 µM; under `Oc1cccc(Nc2nc(Nc3ccc4cc[nH]c4c3)ncc2F)c1` [Compound R926751], 5.59 µM.
Same read-out and setting: in the case of `COc1ccc(Nc2nc(Nc3cccc(O)c3)ncc2F)cc1Cl` [Compound R926945] it was 4.24 µM.
Still for that read-out and setting: in the case of `O=C(c1ccccc1)c1cccc(Nc2ncc(F)c(Nc3cccc(C(=O)c4ccccc4)c3)n2)c1` [Compound R950377] it was 5.96 µM; in that of `Fc1cnc(Nc2ccc3c(c2)OCCO3)nc1NC1CCCCC1` [Compound R925794], over 10 µM.
In turn, `Oc1cccc(Nc2nc(NCCc3c[nH]c4ccccc34)ncc2F)c1` [Compound R945117] gave a half-maximal inhibitory concentration (IC50) of over 10 µM.
